This is an account of results in US9682990B2, “Alcohol-, diol-, and carbohydrate-substituted indenoisoquinolines as topoisomerase I inhibitors” (Purdue Research Foundation, priority 2011, dated 2017).

Like-named read-outs stand apart in the source and are kept apart here. Marks after values point to notes of the source that are not given here.

The subject of series [1] is UACC-62 (Melanoma). Nature of the series: NCI Developmental Therapeutics antiproliferative assay, UACC-62. The series is classed as cell-based, human. On the procedure: (§1) Biological Results. The indenoisoquinoline analogues were tested for antiproliferative activity in the National Cancer Institute's Developmental Therapeutics Assay against cell lines derived from approximately 60 different human tumors.

The subject of series [2] is SF-539 (CNS). The experiment in a line: NCI Developmental Therapeutics antiproliferative assay, SF-539. The series is classed as cell-based, human. On the procedure:
(§2) Biological Results. The indenoisoquinoline analogues were tested for antiproliferative activity in the National Cancer Institute's Developmental Therapeutics Assay against cell lines derived from approximately 60 different human tumors. […] Results are reported in Table 2 as GI50 values for selected cell lines, and overall antiproliferative potency is quantified as a mean-graph midpoint (MGM).

In series [3] the test system is MCF7 (Breast). The experiment in a line: NCI Developmental Therapeutics antiproliferative assay, MCF7. The series is classed as cell-based, human. As for the experimental part:
as §2

Series [4] concerns all human cancer cell lines successfully tested. Nature of the series: NCI-60 cell line assay, mean-graph midpoint. The conditions noted are these: for MGM (mean graph midpoint for growth inhibition): all human cancer cell lines tested, 10^−8 to 10^−4 molar; for GI50: read-out: MGM GI50. Format: cell-based. As for the experimental part:
Biological Results. The indenoisoquinoline analogues were tested for antiproliferative activity in the National Cancer Institute's Developmental Therapeutics Assay against cell lines derived from approximately 60 different human tumors. […] The cytotoxicities of the compounds to cultured cancer cells were measured in the National Cancer Institute's 60 cell line assay (a.k.a. NCI-60).

For series [5], the system named is SN12C (Renal). The experiment in a line: NCI Developmental Therapeutics antiproliferative assay, SN12C. The series is classed as cell-based, human. On the procedure: as §2
The test system of series [6] is cell lines derived from approximately 60 different human tumors. The experiment in a line: NCI initial one-dose screening assay. Format: cell-based. The conditions noted are these: percentage of cell growth, one-dose assay at 10 μM.
Series [7] has as its system HOP-62 (Lung). Nature of the series: NCI Developmental Therapeutics antiproliferative assay, HOP-62. The series is classed as cell-based, human. On the procedure: as §1
For series [8], the system named is OVCAR-3 (Ovarian). Nature of the series: NCI Developmental Therapeutics antiproliferative assay, OVCAR-3. Format: cell-based, human. On the procedure:
as §2

In series [9] the test system is DU-145 (Prostate). Nature of the series: NCI Developmental Therapeutics antiproliferative assay, DU-145. The series is classed as cell-based, human. On the procedure:
as §1

For series [10], the system named is HCT-116 (Colon). The experiment in a line: NCI Developmental Therapeutics antiproliferative assay, HCT-116. The series is classed as cell-based, human. On the procedure:
as §1

[11] abbreviates: Homo sapiens, UACC-62, 50% growth inhibition, read-out: Cytotoxicity (GI50) Melanoma UACC-62.
[12] abbreviates: Homo sapiens, SF-539, 50% growth inhibition, read-out: Cytotoxicity (GI50) CNS SF-539.
Setting [13] is: Homo sapiens, MCF7, 50% growth inhibition, read-out: Cytotoxicity (GI50) Breast MCF7.
Where [14] appears, read: Homo sapiens, SN12C, 50% growth inhibition, read-out: Cytotoxicity (GI50) Renal SN12C.
[15] abbreviates: Homo sapiens, DU-145, 50% growth inhibition, read-out: Cytotoxicity (GI50) Prostate DU-145.
Setting [16] is: Homo sapiens, HOP-62, 50% growth inhibition, read-out: Cytotoxicity (GI50) Lung HOP-62.
[17] abbreviates: Homo sapiens, HCT-116, 50% growth inhibition, read-out: Cytotoxicity (GI50) Colon HCT-116.
[18] abbreviates: Homo sapiens, OVCAR-3, 50% growth inhibition, read-out: Cytotoxicity (GI50) Ovarian OVCAR-3.

`O=C1c2ccccc2-c2c1c1ccccc1c(=O)n2C[C@@H](O)[C@H](O)[C@H](O)CO` [Compound 17a, (2′R, 3′S, 4′R)-5,6-Dihydro-6-(2′,3′,4′,5′-tetrahydroxypentyl)-5,11-dioxo-11H-indeno[1,2-c]isoquinoline]: the GI50 in series [1] is 7.41 µM; in [2] it was 7.59 µM; in series [3] it was 4.57 µM; in series [5] it was 20 µM; in series [7] it was 8.71 µM; in series [8], > 100 µM. Also, the “MGM (mean graph midpoint for growth inhibition)” value in series [4] is 19.9 µM. Also, the “Growth Percent” value in [6] was found to be 58.44%.
In the case of `O=C1c2ccccc2-c2c1c1ccccc1c(=O)n2C[C@H](O)[C@H](O)[C@H](O)[C@H](O)CO` [Compound 17h, (2′S,3′S,4′R,5′R)-5,6-Dihydro-6-(2′,3′,4′,5′,6′-pentahydroxyhexyl)-5,11-dioxo-11H-indeno[1,2-c]isoquinoline], the GI50 was determined as 2.95 µM in [1]; 5.75 µM in series [2]; 1.78 µM in series [3]; 3.39 µM in series [5]; 3.31 µM in series [9]; 3.23 µM in series [7]. Further, the GI50 in series [10] worked out at 4.17 µM; in series [8], 13.8 µM. Besides, in [4], the “MGM (mean graph midpoint for growth inhibition)” value was 5.75 µM. In series [6], the “Growth Percent” value is reported as 49.31%.
In the case of `O=C(CO)Cn1c2c(c3ccccc3c1=O)C(=O)c1ccccc1-2` [Compound 25, 5,6-Dihydro-6-(3′-hydroxy-2′-oxopropyl)-5,11-dioxo-11H-indeno[1,2-c]isoquinoline], the GI50 in series [1] (setting [11]) turned out to be 58.9 µM; in [2] (setting [12]), 20 µM; in series [3] (setting [13]), 32.3 µM; in series [5] (setting [14]), 81.3 µM; in series [9] (setting [15]) it was 17.8 µM; in series [7] (setting [16]) it was 40.7 µM. The values for the GI50 in series [10] (setting [17]) and in [8] (setting [18]) were 30.9 µM and 5.23 µM, respectively. The “MGM (mean graph midpoint for growth inhibition)” value in [4] was found to be 20.9 µM. The “Growth Percent” value in series [6] worked out at 72.36%.
Regarding `O=C1c2ccccc2-c2c1c1ccccc1c(=O)n2C[C@@H](O)[C@@H](O)[C@H](O)[C@H](O)CO` [Compound 17f, (2′R, 3′R, 4′R, 5′R)-5,6-Dihydro-6-(2′,3′,4′,5′,6′-pentahydroxyhexyl)-5,11-dioxo-11H-indeno[1,2-c]isoquinoline], the “Growth Percent” value in [6] amounted to 69.35%.
For the compound `O=C1c2ccccc2-c2c1c1ccccc1c(=O)n2C[C@H](O)[C@@H](O)[C@H](O)[C@H](O)CO` [Compound 17c, (2′S,3′R,4′R,5′R)-5,6-Dihydro-6-(2′,3′,4′,5′,6′-pentahydroxyhexyl)-5,11-dioxo-11H-indeno[1,2-c]isoquinoline], in series [6], the “Growth Percent” value was 97.16^e %.
`NCCCn1c2c(c3ccc([N+](=O)[O-])cc3c1=O)C(=O)c1cc3c(cc1-2)OCO3` [reference compound]: in series [4] (Homo sapiens, Table 3, NCI-60, unit inferred), the GI50 turned out to be 0.09 ± 0.04 µM.
In the case of `O=C1c2ccccc2-c2c1c1ccccc1c(=O)n2C[C@H](O)[C@@H](O)[C@H](O)CO` [Compound 17d, (2′S,3′R,4′R)-5,6-Dihydro-6-(2′,3′,4′,5′-tetrahydroxypentyl)-5,11-dioxo-11H-indeno[1,2-c]isoquinoline], the GI50 in series [2] was 7.94 µM; in series [3], 1.74 µM; in series [5], 2.24 µM; in series [7] it was 3.23 µM; in [8] it was 24 µM. In [4], the “MGM (mean graph midpoint for growth inhibition)” value is 4.07 µM. In addition, the “Growth Percent” value in [6] is 34.91%.
Regarding `O=C1c2ccccc2-c2c1c1ccc([N+](=O)[O-])cc1c(=O)n2C[C@H](O)CO` [Compound 30, (2′S)-5,6-Dihydro-6-(2′,3′-dihydroxypropyl)-3-nitro-5,11-dioxo-11H-indeno[1,2-c]isoquinoline], in series [4], the “MGM (mean graph midpoint for growth inhibition)” value stood at 0.156 ± 0.061 µM and the GI50 is 0.156 µM.
With `O=C1c2ccccc2-c2c1c1ccccc1c(=O)n2C[C@@H](O)[C@@H](O)[C@H](O)CO` [Compound 17e, (2′R,3′R,4′R)-5,6-Dihydro-6-(2′,3′,4′,5′-tetrahydroxypentyl)-5,11-dioxo-11H-indeno[1,2-c]isoquinoline], the GI50 in [1] came out at 6.31 µM; in [2], 11.2 µM; in series [3], 1.9 µM; in series [5] it was 5.01 µM; in [7], 6.46 µM; in [8], 13.2 µM. For the same compound, the “MGM (mean graph midpoint for growth inhibition)” value in [4] amounted to 7.76 µM. Also, the “Growth Percent” value in series [6] is 50.62%.
Consider `C[C@H](O)Cn1c2c(c3ccccc3c1=O)C(=O)c1ccccc1-2` [Compound 27b, (2′S)-5,6-Dihydro-6-(2′-hydroxypropyl)-5,11-dioxo-11H-indeno[1,2-c]isoquinoline], for which, in [6], the “Growth Percent” value is 54.88%.
For `O=C1c2ccccc2-c2c1c1ccc([N+](=O)[O-])cc1c(=O)n2C[C@H](O)[C@@H](O)[C@H](O)[C@H](O)CO` [Compound 19, (2′S,3′R,4′R,5′R)-5,6-Dihydro-6-(2′,3′,4′,5′,6′-pentahydroxyhexyl)-3-nitro-5,11-dioxo-11H-indeno[1,2-c]isoquinoline], the GI50 in [1] (setting [11]) was 2.98 µM; in [2] (setting [12]), 2.61 µM; in series [3] (setting [13]) it was 0.88 µM; in [5] (setting [14]) it was 17.7 µM; in [9] (setting [15]) it was 4.76 µM; in series [7] (setting [16]), 7.35 µM. The figures for the GI50 in series [10] (setting [17]) and in [8] (setting [18]) were 5.08 µM and 4.26 µM, respectively. The “MGM (mean graph midpoint for growth inhibition)” value in series [4] was 4.60 ± 0.53 µM. Further, in [6], the “Growth Percent” value is listed as 58.05%.
For the compound `O=C1c2ccccc2-c2c1c1ccccc1c(=O)n2C[C@H](O)[C@H](O)[C@H](O)CO` [Compound 17b, (2′S,3′S,4′R)-5,6-Dihydro-6-(2′,3′,4′,5′-tetrahydroxypentyl)-5,11-dioxo-11H-indeno[1,2-c]isoquinoline], the GI50 in [1] turned out to be 3.23 µM; in series [2], 2.14 µM; in series [3], 1.38 µM; in series [5] it was 2.4 µM; in series [8], 13.5 µM. Besides, in series [4], the “MGM (mean graph midpoint for growth inhibition)” value was 3.31 µM. The “Growth Percent” value in [6] stood at 17.28%.
For `COc1cc2c3c(n(C[C@H](O)CO)c(=O)c2cc1OC)-c1ccccc1C3=O` [Compound 29, (2′S)-5,6-Dihydro-6-(2′,3′-dihydroxypropyl)-2,3-dimethoxy-5,11-dioxo-11H-indeno[1,2-c]isoquinoline], the GI50 in series [1] worked out at 0.144 µM; in series [2], 0.214 µM; in [3], 0.097 µM; in series [4], 0.401 µM; in series [5] it was 0.501 µM; in series [9] it was 0.419 µM. For the same compound, the results for the GI50 in series [7], in series [10] and in series [8] were 0.336 µM, 0.23 µM and 0.287 µM, respectively. Further, the “MGM (mean graph midpoint for growth inhibition)” value in series [4] was found to be 0.401 ± 0.055 µM.
For the compound `O=C1c2ccccc2-c2c1c1ccccc1c(=O)n2CC(O)CO` (racemic) [Compound 12c, (2′RS)-5,6-Dihydro-6-[(2′,3′-dihydroxypropyl)]-5,11-dioxo-11H-indeno[1,2-c]isoquinoline], the GI50 in series [1] (setting [11]) was determined as 7.58 µM; in series [2] (setting [12]) it was 5.89 µM; in series [3] (setting [13]), 3.55 µM; in series [4] (Homo sapiens), 5.13 µM; in series [5] (setting [14]), 2.95 µM; in series [9] (setting [15]), 2.88 µM. The values for the GI50 in series [7] (setting [16]), in series [10] (setting [17]) and in [8] (setting [18]) were 7.76 µM, 4.36 µM and 18.6 µM, respectively. For the same compound, the “MGM (mean graph midpoint for growth inhibition)” value in series [4] stood at 5.13 µM.
With “(1′R)-5,6-Dihydro-6-(3′-hydroxy-1′-methylethyl)-5,11-dioxo-11H-indeno[1,2-c]isoquinoline [Compound 22b]”, in [6], the “Growth Percent” value worked out at 78.60%.
On to `O=C1c2ccccc2-c2c1c1ccccc1c(=O)n2C[C@H](O)[C@@H](O)[C@@H](O)CO` [Compound 17g, (2′S,3′R,4′S,5′R)-5,6-Dihydro-6-(2′,3′,4′,5′-tetrahydroxypentyl)-5,11-dioxo-11H-indeno[1,2-c]isoquinoline], for which the “Growth Percent” value in series [6] is 67.99%.
As for “(1′RS)-5,6-Dihydro-6-(3′-hydroxy-2′-methylethyl)-5,11-dioxo-11H-indeno[1,2-c]isoquinoline [Compound 22c]”, the GI50 in [1] was 11.7 µM; in [2], 14.4 µM; in series [3], 34.4 µM; in [5], 37.1 µM; in series [9], 23.7 µM; in series [7], 17.6 µM. Moreover, the GI50 stood at 15.9 µM in series [10] and 25.7 µM in [8]. Moreover, in [4], the “MGM (mean graph midpoint for growth inhibition)” value stood at 15.6 ± 2.15 µM.
